According to PubChem BioAssay AID1259407 (Chemical Carcinogenesis Research Information System (CCRIS), 2018):
Calls of active or inactive are those of the source. How the calls were made is not given here.

Tested on: CCRIS mutagenicity, Ames/micronucleus/aberration tests
Assay: CCRIS mutagenicity studies
[1] = Test System: AMES SALMONELLA TYPHIMURIUM, Strain/Indicator: TA98, Metabolic Activation: NONE, Method: STANDARD PLATE
[2] = Test System: AMES SALMONELLA TYPHIMURIUM, Strain/Indicator: TA1535, Metabolic Activation: NONE, Method: STANDARD PLATE
[3] = Test System: AMES SALMONELLA TYPHIMURIUM, Strain/Indicator: TA1535, Metabolic Activation: RAT, LIVER, S-9, AROCLOR 1254, Method: STANDARD PLATE
[4] = Test System: AMES SALMONELLA TYPHIMURIUM, Strain/Indicator: TA98, Metabolic Activation: RAT, LIVER, S-9, AROCLOR 1254, Method: STANDARD PLATE
[5] = Test System: AMES SALMONELLA TYPHIMURIUM, Strain/Indicator: TA100, Metabolic Activation: NONE, Method: STANDARD PLATE
[6] = Test System: AMES SALMONELLA TYPHIMURIUM, Strain/Indicator: TA100, Metabolic Activation: RAT, LIVER, S-9, AROCLOR 1254, Method: STANDARD PLATE
[7] = Test System: AMES SALMONELLA TYPHIMURIUM, Strain/Indicator: TA1537, Metabolic Activation: NONE, Method: STANDARD PLATE
[8] = Test System: AMES SALMONELLA TYPHIMURIUM, Strain/Indicator: TA1537, Metabolic Activation: RAT, LIVER, S-9, AROCLOR 1254, Method: STANDARD PLATE
[9] = Test System: AMES SALMONELLA TYPHIMURIUM, Strain/Indicator: TA102, Metabolic Activation: NONE, Method: STANDARD PLATE

For `Nc1cccc2c(N)cccc12`, the mutagenic call [1] was “inactive; negative”, the mutagenic call (Test System: AMES SALMONELLA TYPHIMURIUM, Strain/Indicator: TA98, Metabolic Activation: RAT, LIVER, S-9, Method: STANDARD PLATE) was “inactive; negative” and the mutagenic call (Test System: AMES SALMONELLA TYPHIMURIUM, Strain/Indicator: TA1535, Metabolic Activation: HAMSTER, LIVER, S-9, AROCLOR 1254, Method: STANDARD PLATE) was “inactive; negative”. For the same compound, the mutagenic call (Test System: AMES SALMONELLA TYPHIMURIUM, Strain/Indicator: TA1535, Metabolic Activation: HAMSTER, LIVER, S-9, Method: STANDARD PLATE) was “inactive; negative”, the mutagenic call (Test System: AMES SALMONELLA TYPHIMURIUM, Strain/Indicator: TA1535, Metabolic Activation: MOUSE, LIVER, S-9, AROCLOR 1254, Method: STANDARD PLATE) was “inactive; negative” and the mutagenic call (Test System: AMES SALMONELLA TYPHIMURIUM, Strain/Indicator: TA1535, Metabolic Activation: MOUSE, LIVER, S-9, Method: STANDARD PLATE) was “inactive; negative”. For the same compound, the mutagenic call [2] was “inactive; negative”, the mutagenic call [3] was “inactive; negative” and the mutagenic call (Test System: AMES SALMONELLA TYPHIMURIUM, Strain/Indicator: TA1535, Metabolic Activation: RAT, LIVER, S-9, Method: STANDARD PLATE) was “inactive; negative”. For the same compound, the mutagenic call (Test System: AMES SALMONELLA TYPHIMURIUM, Strain/Indicator: TA1537, Metabolic Activation: HAMSTER, LIVER, S-9, AROCLOR 1254, Method: STANDARD PLATE) was “active; positive”, the mutagenic call (Test System: AMES SALMONELLA TYPHIMURIUM, Strain/Indicator: TA1537, Metabolic Activation: MOUSE, LIVER, S-9, Method: STANDARD PLATE) was “inactive; negative” and the mutagenic call (Test System: AMES SALMONELLA TYPHIMURIUM, Strain/Indicator: TA1537, Metabolic Activation: RAT, LIVER, S-9, Method: STANDARD PLATE) was “inactive; negative”. The mutagenic call (Test System: AMES SALMONELLA TYPHIMURIUM, Strain/Indicator: TA1538, Metabolic Activation: MOUSE, LIVER, S-9, AROCLOR 1254, Method: STANDARD PLATE) was “inactive; negative”, the mutagenic call (Test System: AMES SALMONELLA TYPHIMURIUM, Strain/Indicator: TA1538, Metabolic Activation: MOUSE, LIVER, S-9, Method: STANDARD PLATE) was “inactive; negative” and the mutagenic call (Test System: AMES SALMONELLA TYPHIMURIUM, Strain/Indicator: TA1538, Metabolic Activation: NONE, Method: STANDARD PLATE) was “inactive; negative”. For the same compound, the mutagenic call (Test System: AMES SALMONELLA TYPHIMURIUM, Strain/Indicator: TA1538, Metabolic Activation: RAT, LIVER, S-9, Method: STANDARD PLATE) was “inactive; negative”, the mutagenic call (Test System: E. COLI, Strain/Indicator: WP2 UVRA, Metabolic Activation: HAMSTER, LIVER, S-9, AROCLOR 1254, Method: STANDARD PLATE) was “inactive; negative” and the mutagenic call (Test System: E. COLI, Strain/Indicator: WP2 UVRA, Metabolic Activation: HAMSTER, LIVER, S-9, Method: STANDARD PLATE) was “inactive; negative”. For the same compound, the mutagenic call (Test System: E. COLI, Strain/Indicator: WP2 UVRA, Metabolic Activation: MOUSE, LIVER, S-9, AROCLOR 1254, Method: STANDARD PLATE) was “inactive; negative”, the mutagenic call (Test System: E. COLI, Strain/Indicator: WP2 UVRA, Metabolic Activation: MOUSE, LIVER, S-9, Method: STANDARD PLATE) was “inactive; negative” and the mutagenic call (Test System: E. COLI, Strain/Indicator: WP2 UVRA, Metabolic Activation: NONE, Method: STANDARD PLATE) was “inactive; negative”. The mutagenic call (Test System: E. COLI, Strain/Indicator: WP2 UVRA, Metabolic Activation: RAT, LIVER, S-9, AROCLOR 1254, Method: STANDARD PLATE) was “inactive; negative” and the mutagenic call (Test System: E. COLI, Strain/Indicator: WP2 UVRA, Metabolic Activation: RAT, LIVER, S-9, Method: STANDARD PLATE) was “inactive; negative”.
For `CC(C)NCC(O)c1ccc(NS(C)(=O)=O)cc1` (stereo unspecified), the mutagenic call (Test System: AMES SALMONELLA TYPHIMURIUM, Strain/Indicator: TA98, Metabolic Activation: NONE) was “inactive; negative”, the mutagenic call (Test System: AMES SALMONELLA TYPHIMURIUM, Strain/Indicator: TA98, Metabolic Activation: RAT, LIVER, S-9, AROCLOR 1254) was “inactive; negative” and the mutagenic call (Test System: AMES SALMONELLA TYPHIMURIUM, Strain/Indicator: TA100, Metabolic Activation: NONE) was “inactive; negative”. The mutagenic call (Test System: AMES SALMONELLA TYPHIMURIUM, Strain/Indicator: TA100, Metabolic Activation: RAT, LIVER, S-9, AROCLOR 1254) was “inactive; negative”, the mutagenic call (Test System: AMES SALMONELLA TYPHIMURIUM, Strain/Indicator: TA1535, Metabolic Activation: NONE) was “inactive; negative” and the mutagenic call (Test System: AMES SALMONELLA TYPHIMURIUM, Strain/Indicator: TA1535, Metabolic Activation: RAT, LIVER, S-9, AROCLOR 1254) was “inactive; negative”. For the same compound, the mutagenic call (Test System: AMES SALMONELLA TYPHIMURIUM, Strain/Indicator: TA1537, Metabolic Activation: NONE) was “inactive; negative”, the mutagenic call (Test System: AMES SALMONELLA TYPHIMURIUM, Strain/Indicator: TA1537, Metabolic Activation: RAT, LIVER, S-9, AROCLOR 1254) was “inactive; negative” and the mutagenic call (Test System: UDS HUMAN HEPATOCYTES, Strain/Indicator: THY INCORP, Metabolic Activation: NONE, Method: AUTORADIOGRAPHY) was “inactive; negative”. For the same compound, the mutagenic call (Test System: UDS RAT HEPATOCYTES, Strain/Indicator: THY INCORP, Metabolic Activation: NONE, Method: AUTORADIOGRAPHY) was “inactive; negative”.
In the case of `O=[N+]([O-])c1cc(NS(=O)(=O)c2cccc3cccnc23)ccc1Cl`, the mutagenic call [1] is reported as “inactive; negative”, the mutagenic call [4] is reported as “inactive; negative” and the mutagenic call [5] is reported as “inactive; negative”. For the same compound, the mutagenic call [6] was “inactive; negative”, the mutagenic call [2] was “inactive; negative” and the mutagenic call [3] was “inactive; negative”. For the same compound, the mutagenic call [7] was “inactive; negative” and the mutagenic call [8] was “inactive; negative”.
With `OC[C@H]1O[C@@H](n2cnc3c(=S)nc[nH]c32)[C@H](O)[C@@H]1O` the mutagenic call [1] was “inactive; negative”, the mutagenic call [5] was “active; positive” and the mutagenic call [9] was “inactive; negative”. The mutagenic call [7] was “inactive; negative” and the mutagenic call (Test System: E. COLI, Strain/Indicator: WP2 (HCR), Metabolic Activation: NONE, Method: STANDARD PLATE) was “inactive; negative”.
With `CNC(=O)c1cccc2c(Nc3ccc(NS(C)(=O)=O)cc3OC)c3cccc(C)c3nc12` the mutagenic call [1] was “inactive; negative”, the mutagenic call [4] was “inactive; negative” and the mutagenic call [5] was “inactive; negative”. The mutagenic call [6] was “inactive; negative”, the mutagenic call [9] was “active; positive” and the mutagenic call (Test System: AMES SALMONELLA TYPHIMURIUM, Strain/Indicator: TA102, Metabolic Activation: RAT, LIVER, S-9, AROCLOR 1254, Method: STANDARD PLATE) was “active; positive”. For the same compound, the mutagenic call [7] was “active; positive”, the mutagenic call [8] was “active; positive” and the mutagenic call (Test System: CHINESE HAMSTER V-79, Strain/Indicator: V-79/6-THIOGUANINE, Metabolic Activation: NONE, Method: STANDARD PLATE) was “active; positive”. The mutagenic call (Test System: CHINESE HAMSTER V-79, Strain/Indicator: V-79/OUABAIN, Metabolic Activation: NONE, Method: STANDARD PLATE) was “inactive; negative”.
